Where two headings read alike, the source gives them in different places.
Test system: Raf-1^gof intestinal tumors
[1] = screen of 480 ICCB compounds in vials, compounds fed to flies with one-day old Raf-1^gof tumors, assessed three days later, esg-Gal4 luciferase
[2] = screen of 480 ICCB compounds in vials, compounds fed to flies with one-day old Raf-1^gof tumors, assessed three days later, esg-Gal4 luciferase, averaged from multiple wells
[3] = ICCB compounds fed in vials to flies with one-day old Raf-1^gof tumors, assessed three days later
[4] = ICCB compounds fed in vials to flies with one-day old Raf-1^gof tumors, assessed three days later, averaged from multiple wells
For Fold (luciferase activity relative to DMSO controls) in this document: test concentration or dose not given here.
For Fold (luciferase activity, fold difference relative to DMSO controls) in this document: test concentration or dose not given here.
For Log2 (fold) (luciferase activity, log2 of the fold difference relative to DMSO controls) in this document: test concentration or dose not given here.
For Log2 (fold) of luciferase activity relative to DMSO controls in this document: test concentration or dose not given here.

| Compound | Log2 (fold) (luciferase activity, log2 of the fold difference relative to DMSO controls) [1] | Fold (luciferase activity, fold difference relative to DMSO controls) [2] | further results |
| --- | --- | --- | --- |
| CCCNCC(O)COc1ccccc1C(=O)CCc1ccccc1 (stereo not drawn) [PROPAFENONE] | −0.214 | 0.862 |  |
| CCCCC[C@H](O)/C=C/[C@H]1C=CC(=O)[C@@H]1CCCCCCC(=O)O [PROSTAGLANDIN A1] | −0.522 | 0.696 |  |
| CCCCC[C@H](O)/C=C/[C@H]1C=CC(=O)[C@@H]1C/C=C\CCCC(=O)O [PROSTAGLANDIN A2] | −0.295 | 0.815 |  |
| CCCCC[C@H](O)/C=C/C1=C(CCCCCCC(=O)O)C(=O)CC1 [PROSTAGLANDIN B1] | −0.408 | 0.753 |  |
| CCCCC[C@H](O)/C=C/C1=C(C/C=C\CCCC(=O)O)C(=O)CC1 [PROSTAGLANDIN B2] | −0.330 | 0.796 |  |
| CCCCC[C@H](O)/C=C/[C@H]1C(=O)C[C@H](O)[C@@H]1C/C=C\CCCC(=O)O [PROSTAGLANDIN D2] | −0.413 | 0.751 |  |
| CCCCC[C@H](O)/C=C/[C@H]1[C@H](O)CC(=O)[C@@H]1CCCCCCC(=O)O [PROSTAGLANDIN E1] | −0.561 | 0.678 |  |
| CCCCC[C@H](O)/C=C/[C@H]1[C@H](O)CC(=O)[C@@H]1C/C=C\CCCC(=O)O [PROSTAGLANDIN E2] | −0.223 | 0.857 |  |
| CCCCC[C@H](O)/C=C/[C@@H]1[C@@H](CCCCCCC(=O)O)[C@@H](O)C[C@H]1O [PROSTAGLANDIN F1a] |  |  | Log2 (fold) of luciferase activity relative to DMSO controls [3]: −0.208; Fold (luciferase activity relative to DMSO controls) [4]: 0.866 fold |
| CCCCC[C@H](O)/C=C/[C@@H]1[C@@H](C/C=C\CCCC(=O)O)[C@@H](O)C[C@H]1O [PROSTAGLANDIN F2a] | −0.450 | 0.732 |  |
| CCCCC[C@H](O)/C=C/[C@@H]1[C@H]2C/C(=C/CCCC(=O)[O-])O[C@H]2C[C@H]1O.[Na+] [PROSTAGLANDIN I2 Na] | −0.244 | 0.844 |  |
| CC(COc1ccccc1)N(CCCl)Cc1ccccc1 (stereo not drawn) [Phenoxybenzamine] | −0.600 | 0.660 |  |
| Oc1cc(O)cc(/C=C/c2ccc(O)c(O)c2)c1 [Piceatannol, reference compound] | −1.020 | 0.493 | Fold (Table 3 summary of hits, Screen ICCB, luciferase relative to DMSO, fed three consecutive days in vials): 0.493 fold |
| CC(=O)[C@H]1[C@H](C#N)C[C@H]2[C@@H]3CC=C4C[C@@H](O)CC[C@]4(C)[C@H]3CC[C@@]21C [Pregnenolone 16alpha carbonitrile] | −0.492 | 0.711 |  |
| C=C[C@H]1C[N@@]2CC[C@H]1C[C@@H]2[C@@H](O)c1ccnc2ccc(OC)cc12 [QUINIDINE] | −0.351 | 0.784 |  |
| C=C[C@H]1C[N@@]2CC[C@H]1C[C@H]2[C@H](O)c1ccnc2ccc(OC)cc12 [QUININE] |  |  | Log2 (fold) of luciferase activity relative to DMSO controls [3]: −0.201; Fold (luciferase activity relative to DMSO controls) [4]: 0.870 fold |
| CC[N+](CC)(CC)CC(=O)Nc1c(C)cccc1C [QX-314] |  |  | Log2 (fold) of luciferase activity relative to DMSO controls [3]: 0.146; Fold (luciferase activity relative to DMSO controls) [4]: 1.107 fold |

| Compound | Log2 (fold) (luciferase activity, log2 of the fold difference relative to DMSO controls) [1] | Fold (luciferase activity, fold difference relative to DMSO controls) [2] | further results |
| --- | --- | --- | --- |
| CC1=C(/C=C/C(C)=C/C=C/C(C)=C/C(=O)O)C(C)(C)CCC1 [RETINOIC ACID, ALL TRANS] |  |  | Log2 (fold) of luciferase activity relative to DMSO controls [3]: −0.162; Fold (luciferase activity relative to DMSO controls) [4]: 0.894 fold |
| CCCCCC(O)c1cccc(OCc2ccc3ccccc3n2)c1 (stereo not drawn) [REV-5901] | −0.282 | 0.822 |  |
| N#C/C(=C\c1cc(Cl)cc(Cl)c1)c1cccnc1 [RG-14620] | −0.483 | 0.715 |  |
| O=C(NCCCCCCNC(=O)ON=C1CCCCC1)ON=C1CCCCC1 [RHC-80267] | −0.279 | 0.824 |  |
| CCCCCCCCCCCCCCCC(=O)C1=C(O)C(CO)OC1=O (stereo not drawn) [RK-682] | −0.492 | 0.711 |  |
| CC(=O)OCOC(c1cc([N+](=O)[O-])ccc1Oc1ccc(Br)cc1)P(=O)(OCOC(C)=O)OCOC(C)=O (stereo not drawn) [RWJ-60475-(AM)3] | −0.217 | 0.861 |  |
| COc1ccc(C2CNC(=O)C2)cc1OC1CCCC1 (stereo not drawn) [Rolipram] | −0.414 | 0.750 |  |
| CC(=O)c1c(O)c(C)c(O)c(Cc2c(O)c3c(c(C(=O)/C=C/c4ccccc4)c2O)OC(C)(C)C=C3)c1O [Rottlerin] | −0.865 | 0.549 |  |
| Oc1ccc(-c2nc(-c3ccc(F)cc3)c(-c3ccncc3)[nH]2)cc1 [SB 202190] | −0.222 | 0.857 |  |
| C[S+]([O-])c1ccc(-c2nc(-c3ccc(F)cc3)c(-c3ccncc3)[nH]2)cc1 (stereo not drawn) [SB 203580] |  |  | Fold (luciferase activity relative to DMSO controls) (in vivo): 1.036 fold; Log2 (fold) of luciferase activity relative to DMSO controls (in vivo): 0.051 |
| NC(=O)c1ccc(-c2nc(-c3ccccn3)c(-c3ccc4c(c3)OCO4)[nH]2)cc1 [SB-431542] |  |  | Log2 (fold) of luciferase activity relative to DMSO controls [3]: 0.068; Fold (luciferase activity relative to DMSO controls) [4]: 1.048 fold |
| N#Cc1cc2c(OCC(O)CN3CCN(C(c4ccccc4)c4ccccc4)CC3)cccc2[nH]1 (stereo not drawn) [SDZ-201106] |  |  | Fold (luciferase activity, fold difference relative to DMSO controls) (in vivo): 0.804; Log2 (fold) (luciferase activity, log2 of the fold difference relative to DMSO controls) (in vivo): −0.315 |
| COc1ccc(CCCOC(Cn2ccnc2)c2ccc(OC)cc2)cc1 (stereo not drawn) [SKF-96365] |  |  | Log2 (fold) of luciferase activity relative to DMSO controls [3]: 0.134; Fold (luciferase activity relative to DMSO controls) [4]: 1.097 fold |
| Oc1c2ccccc2c2c3c(cccc13)N=N2 [SP-600125] |  |  | Log2 (fold) of luciferase activity relative to DMSO controls [3]: −0.100; Fold (luciferase activity relative to DMSO controls) [4]: 0.933 fold |
| CCCCCCCCCCCCC/C=C/[C@@H](O)[C@@H](N)CO [SPHINGOSINE] |  |  | Log2 (fold) of luciferase activity relative to DMSO controls [3]: −0.030; Fold (luciferase activity relative to DMSO controls) [4]: 0.980 fold |
| Nc1ncnc2c1ncn2C1CCCO1 (stereo not drawn) [SQ22536] | −0.270 | 0.829 |  |
| O=C(O)CCC/C=C\C[C@@H]1[C@H](CNNC(=O)Nc2ccccc2)[C@H]2CC[C@@H]1O2 [SQ-29548] | −0.606 | 0.657 |  |

— patent publication US20130096067A1, “DROSOPHILA TUMOR STEM CELL MODEL AND USES THEREOF” (priority 2011, published 2013)
